What was measured:
uPA = uPA (Homo sapiens, UniProt P00749); details: L-confirmation; cited from earlier work
plasmin = plasmin (Homo sapiens, UniProt P00747); details: L-confirmation; cited from earlier work
tumor cell invasion = details: cited from earlier work
BN472 rat mammary tumors = test system: BN472 rat mammary tumors
Method: Small tumor cubes (2×2×2 mm) were prepared from a tumor grown in a donor rat and implanted orthotopically under the fat pad of the mammary gland.
The effects of treatments on body weight and tumor load were evaluated twice weekly. The final evaluation was done at the end of the therapy period after all rats had been sacrificed. Graphical evaluations of the endpoints considered, i.e., tumor size and weight, axillary lymph-node weights, the number of macroscopic lung foci, and the weights of the thymus, uterus, spleen and liver, are depicted in FIGS. 3, 3a, 3b, 3c, 3d and 3e.

[1] = irinotecan mono-therapy, both doses (2 and 6 mg/kg daily i.p.)

Sequence of plasmin (P00747 581-810 limits assumed, species assumed): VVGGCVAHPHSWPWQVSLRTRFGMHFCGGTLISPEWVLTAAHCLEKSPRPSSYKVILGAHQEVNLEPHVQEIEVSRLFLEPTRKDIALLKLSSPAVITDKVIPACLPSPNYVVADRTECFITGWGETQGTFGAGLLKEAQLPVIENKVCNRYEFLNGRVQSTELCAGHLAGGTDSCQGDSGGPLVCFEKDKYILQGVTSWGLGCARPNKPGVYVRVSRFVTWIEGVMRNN
Sequence of plasmin (P00747 97-580 partner limits assumed, species assumed): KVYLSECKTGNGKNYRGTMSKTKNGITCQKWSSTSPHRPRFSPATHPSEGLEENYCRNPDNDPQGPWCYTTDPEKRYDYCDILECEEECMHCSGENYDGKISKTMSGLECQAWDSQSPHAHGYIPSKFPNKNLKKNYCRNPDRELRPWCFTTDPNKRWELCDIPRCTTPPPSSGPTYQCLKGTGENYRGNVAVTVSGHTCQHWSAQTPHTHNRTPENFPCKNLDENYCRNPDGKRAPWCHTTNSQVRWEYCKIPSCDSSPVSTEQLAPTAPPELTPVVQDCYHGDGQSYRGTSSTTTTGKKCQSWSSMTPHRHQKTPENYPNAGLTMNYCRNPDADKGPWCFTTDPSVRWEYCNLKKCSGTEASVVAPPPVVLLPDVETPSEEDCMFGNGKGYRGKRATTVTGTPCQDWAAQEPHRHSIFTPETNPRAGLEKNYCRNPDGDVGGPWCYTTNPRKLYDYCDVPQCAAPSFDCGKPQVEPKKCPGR

Compound: CCOC(=O)N1CCN(C(=O)[C@H](Cc2cccc(C(=N)N)c2)NS(=O)(=O)c2c(C(C)C)cc(C(C)C)cc2C(C)C)CC1 [WX-UK1, N[alpha]-(2,4,6-triisopropylphenylsulfonyl)-3-amidino-(L)-phenylalanine 4-ethoxycarbonylpiperazide]
- Ki values, inhibition of uPA (uPA): low- or sub-micromoles range
- Ki values, inhibition of plasmin (plasmin): low- or sub-micromoles range
- tumor cell invasion in vitro (tumor cell invasion): suppress tumor cell invasion in vitro

Compound: CCc1c2c(nc3ccc(OC(=O)N4CCC(N5CCCCC5)CC4)cc13)-c1cc3c(c(=O)n1C2)COC(=O)[C@]3(O)CC [irinotecan]
- tolerability (daily observations during the treatment period) (BN472 rat mammary tumors; WX-671 0.3 mg/kg daily p.o., irinotecan 2 or 6 mg/kg daily i.p.): generally well tolerated
- axillary lymph-nodes weight (BN472 rat mammary tumors; [1]): significantly inhibited
- number of lung foci (BN472 rat mammary tumors; [1]): significantly inhibited
- tumor growth (BN472 rat mammary tumors; irinotecan mono-therapy, daily i.p.): inhibition of tumor growth

— patent US20080226624A1, “Combined treatment of cancer by urokinase inhibition and a cytostatic anti-cancer agent for enhancing the anti-metastatic effect” (priority 2007, published 2008)
